Laboratory results as given in patent publication US7169787B2, “7-azaindoles, use thereof as phosphodiesterase 4 inhibitors and method for producing the same” (Elbion AG, priority 2000, dated 2007).
Where a name gives a salt, the structure may show the parent alone.

Columns and labels:
PDE 4 = assay: Inhibition of phosphodiesterase 4 (enzyme preparation from human PMNL, [3H]-cAMP); assay type: biochemical; details: PDE 4 from human PMNL cytosol, 0.5 μM [3H]-cAMP
Protocol: The PDE 4 activity is determined in enzyme preparations from human polymorphonuclear […] (PMNL) and the PDE 2, 3 and 5 activity is determined with PDE from human thrombocytes. Human blood was anti-coagulated with citrate. By centrifuging at 700×g for 20 minutes at room temperature, the thrombocyte-rich plasma in the supernatant is separated from the erythrocytes and leukocytes. The thrombocytes are lysed by ultrasound and used in the PDE 3 and PDE 5 assays. For the determination of the PDE 2 activity, the cytosolic thrombocyte fraction is purified on an anionic exchange column by means of NaCl gradients and the PDE 2 peak is obtained for the assay. The PMNLs for the PDE 4 determination are isolated by a subsequent dextran sedimentation, followed by a gradient centrifugation with Ficoll-Paque. After the cells have been washed twice, the erythrocytes, still contained, are lysed within 6 minutes at 4° C. by the addition of 10 mL of hypotonic buffer (155 mM of NH4Cl, 10 mM of NaHCO3, 0.1 mM of EDTA, pH=7.4). The PMNLs, which are still intact, are washed twice with PBS and lysed with ultrasound. The supernatant of a one-hour centrifugation at 4° C. at 48,000×g contains the cytosolic fraction of the PDE 4 and is used for the PDE 4 measurements.
The phosphodiesterase activity is determined using the method described by Thompson et al. with some modifications (Thompson, W. J. and M. M. Appleman, Assay of cyclic nucleotide phosphodiesterase and resolution of multiple molecular forms of the enzyme, Adv. Cycl. Nucl. Res. 1979, 10, 69–92).
The reaction mixtures contain 50 mM of tris hydrochloride (pH 7.4), 5 mM of magnesium chloride, the inhibitors in various concentrations, the corresponding enzyme preparation as well as the further components necessary for determining the individual isoenzymes (see below). The reaction is started by the addition of the substrate, 0.5 μM of [^3H]-cAMP or [^3H]-cGMP (approximately 6000 CPM per test). The final volume is […]. Test substances are mixed as stock solutions in DMSO. The DMSO concentration in the reaction mixture is 1% v/v. The PDE activity is not affected by this concentration of DMSO. After the reaction is started by the addition of substrate, samples are incubated for 30 minutes at 37° C. The reaction is stopped by heating the test tubes for 2 minutes at 110° C. The samples remain for a further 10 minutes in ice. The addition of 30 μL of 5′-nucleotidase (1 mg/mL, from a poisonous snake suspension from Crotalus adamanteus) is followed by a 10-minutes incubation at 37° C. The samples are stopped on ice, in each case 400 μL of a mixture of Dowex, water and ethanol (1+1+1) is added, mixed well and incubated once again for 15 minutes on ice. The reaction vessels are centrifuged for 20 minutes at 3000×g. Aliquots of the supernatant (200 μL) are transferred directly to scintillation vessels. After the addition of 3 mL of scintillator, the samples are measured in the beta counter.
[^3H]-cAMP is used as substrate for the determination of the PDE 4, 3 and 2 activity and [^3H]-cGMP is used as substrate for the determination of the PDE 5 activity. The enzyme activities, which are nonspecific in each case, are determined in the presence of 100 μM of Rolipram for the determination of PDE 4 and in the presence of 100 μM of IBMX for the determination of the PDE 3 and 5 and subtracted from the test values. The incubation formulations of the PDE 3 assays contained 10 μM of Rolipram, in order to inhibit possible contaminations by PDE 4. The PDE 2 is tested with an SPA assay of the Amersham Company. The assay is carried out in the presence of the activator of the PDE 2 (5 μM of cGMP).

[1] = system: release of TNFα from cells of nasal polyps; assay: Inhibition of the release of TNFα from cells of nasal polyps (anti-IgE stimulated, ELISA); assay type: cell-based; details: Homo sapiens; concentration 1.0 μmole/L; anti-IgE stimulated nasal polyp cells
Protocol: The experimental arrangement corresponds essentially to the method described by Campbell, A. M. and J. Bousquet (Anti-allergic activity of H1-blockers, Int. Arch. Allergy Immunol., 1993, 101, 308–310). Nasal polyps form the starting material (material from patients, who had been subjected to a surgical treatment).
The tissue is washed with RPMI 1640 and subsequently digested with protease (2.0 mg/mL), collagenase (1.5 mg/mL), hyaluronidase (0.75 mg/mL), and DNAse (0.05 mg/mL) for two hours at 37° C. (1 g of tissue and 4 mL of RPMI 1640 with enzymes). The cells obtained, a mixture of epithelial cells, monocytes, macrophages, lymphocytes, fibroblasts and granulocytes, are filtered and washed by being centrifuged repeatedly in culture solution and sensitized passively by the addition of human IgE and the cell suspension is brought to a concentration of 2 million cells/mL in RPMI 1640 (supplemented by antibiotics, 10% fetal calf serum, 2 mM of glutamine and 25 mM of Hepes). This suspension is distributed on six-well cell culture plates (1 ml/well). The cells are pre-incubated for 30 minutes with the test substances in different final concentrations and subsequently stimulated to release TNFα by the addition of anti-IgE (7.2 μg/mL). The maximum release into the culture medium takes place after about 18 hours. During this period, the cells are incubated at 37° C. and 5% carbon dioxide. The culture medium (supernatant) is recovered by centrifuging (five minutes at 4000 rpm) and kept at −70° C. until the cytokin is determined. The TNFα in the supernatant is determined with so-called sandwich ELISAs (basic material Pharmingen), with which cytokin concentrations ranging from 30 to 1000 pg/mL can be determined.
Cells, not stimulated with anti IgE, hardly produce any TNFα; on the other hand, stimulated cells secrete large amounts of TNFα, which can be reduced, for example, by PDE 4 inhibitors as a function of the dose. From the percentage inhibition (TNFα release by the cells, stimulated with anti IgE=100%) of the substances tested at different concentrations, the IC50 (concentration at 50% inhibition) is calculated.

[2] = system: actively sensitized Brown Norway Rats; assay: Inhibition of the late phase eosinophilia 48 hours after inhalative ovalbumin challenge; assay type: in vivo, rat; details: 2 h before allergen challenge, BAL 48 h after challenge
Protocol: The inhibition of pulmonary eosinophilia infiltration by the inventive substances is tested on male Brown Norway Rats (200–250 g), which had been actively sensitized against ovalbumin (OVA). The rats were sensitized by subcutaneous injections of a suspension of 10 μg OVA together with 20 mg of aluminum hydroxide as adjuvant in 0.5 mL of physiological salt solution per animal on days 1, 14 and 21. In addition, the animals at the same time received Bordetella pertussis vaccine dilution injected 0.25 mL i.p. per animal. On the 28th day of the experiment, the animals are placed individually in open 1 L Plexiglas boxes, which are connected to a head-nose exposure device. The animals are exposed to an aerosol of 1.0% ovalbumin suspension (allergen challenge). The ovalbumin aerosol is produced by a nebulizer (Bird Micronebulizer, Palm Springs Calif., USA), which is operated with compressed air (0.2 MPa). The exposure time is one hour, normal controls being nebulized also for one hour with an aerosol of 0.9% salt solution.
Forty-eight hours after the allergen challenge, there is a massive migration of eosinophilic granulocytes into the lungs of the animals. At this time, the animals are anesthetized with an excess of ethyl urethane (1.5 g/kg of body weight i.p.) and a bronchoalveolar lavage (BAL) with 3×4 mL of Hank's balance solution is carried out. The total cell count and the number of eosinophilic granulocytes of the pooled BAL liquid are subsequently determined with an automatic cell differentiation instrument (Bayer Diagnostics Technicon HIE). For each animal, the eosinophiles (EOS) in the BAL are calculated in millions/animal: EOS/μl×BAL recovery (mL)=EOS/animal.
For each test, 2 control groups were run (nebulization with physiological salt solution and nebulization with OVA solution).
The percentage inhibition of the eosinophilia of the experimental group, treated with substance, was calculated according to the following formula: {((OVAC−SC)−(OVAD−SC))/(OVAC−SC)}×100%=% inhibition (SC=vehicle-treated control group challenged with 0.9% salt solution; OVAC=vehicle-treated control group challenged with 1% ovalbumin suspension; OVAD=substance-treated experimental group challenged with 1% ovalbumin suspension)
The test substances are applied i.p. or orally as a suspension in 10% polyethylene glycol 300 and 0.5% 5-hydroxyethylcellulose for two hours before the allergen challenge. The control groups are treated with the vehicle in accordance with the application form of the test substance.

Compound	IC50 (PDE 4) [µM]	melting point	inhibition at 1 µM [1] [%]	Inhibition of Eosinophilia ([2]; 10 mg/kg i.p.) [%]	Inhibition of Eosinophilia ([2]; 10 mg/kg p.o.) [%]
O=C(Nc1ccncc1)C(=O)c1cn(Cc2ccc(Cl)cc2)c2ncccc12 [Example 15]	0.031	–	–	–	–
O=C(Nc1c(Cl)cncc1Cl)C(=O)c1cn(CC2CC2)c2ncccc12 [Example 25]	0.004	215 to 218 °C	–	–	–
O=C(NCc1ccncc1)c1cn(CC2CC2)c2ncccc12 [Example 1, N-(4-Pyridylmethyl)-1-cyclopropylmethyl-7-azaindole-3-carboxylic Acid Amide]	0.71	–	–	–	–
O=C(Nc1c(Cl)cncc1Cl)C(=O)c1cn(Cc2ccc(Cl)cc2)c2ncccc12 [Example 16]	0.002	205 to 207 °C	90	100	70
O=C(Nc1ccncc1)C(=O)c1cn(Cc2ccc(F)cc2)c2ncccc12 [Example 13]	0.058	–	–	–	–
O=C(Nc1c(Cl)cncc1Cl)C(=O)c1cn(Cc2ccc(O)cc2)c2ncccc12 [Example 23]	0.001	140 to 142 °C	–	–	–
O=C(Nc1ccncc1)C(=O)c1cn(Cc2ccc(F)cc2)c2ncccc12 (as salt: HCl) [Example 13]	–	275 to 278 °C (dec.)	–	–	–
CC(C)Cn1cc(C(=O)Nc2c(Cl)cncc2Cl)c2cccnc21 [Example 2]	1.4	–	–	–	–
CCCCCCn1cc(C(=O)C(=O)Nc2c(Cl)cncc2Cl)c2cccnc21 [Example 26]	0.021	165 to 167 °C	–	–	–
O=C(Nc1c(Cl)cccc1Cl)C(=O)c1cn(Cc2ccc(Cl)cc2)c2ncccc12 [Example 18]	0.031	166 to 168 °C	–	–	–
C=C(C)Cn1cc(C(=O)C(=O)Nc2c(Cl)cncc2Cl)c2cccnc21 [Example 28]	0.003	114 to 116 °C	–	–	–
COc1ccc(Cn2cc(C(=O)C(=O)Nc3c(Cl)cncc3Cl)c3cccnc32)cc1 [Example 17]	0.008	165 to 167 °C	91	75	32
COc1cccc(Cn2cc(C(=O)C(=O)Nc3c(Cl)cncc3Cl)c3cccnc32)c1 [Example 12, N-(3,5-Dichloropyridine-4-yl)-[1-(3-methoxybenzyl)-7-azaindole-3-yl]-glyoxylic Acid Amide]	0.005	165 to 167 °C	–	–	–
O=C(Nc1c(Cl)cncc1Cl)C(=O)c1cn(Cc2cccc(O)c2)c2ncccc12 [Example 24]	0.003	241 to 244 °C	–	–	–
Cc1[nH]c(=O)[nH]c(=O)c1NC(=O)C(=O)c1cn(Cc2ccc(F)cc2)c2ncccc12 [Example 37]	0.987	297 to 300 °C (dec.)	–	–	–
Cc1noc(C)c1Cn1cc(C(=O)C(=O)Nc2c(Cl)cncc2Cl)c2cccnc21 [Example 32]	0.113	196 to 198 °C	–	–	–
O=C(Nc1ccncc1)C(=O)c1cn(Cc2ccc(Cl)cc2)c2ncccc12 (as salt: HCl) [Example 15]	–	280 to 283 °C (dec.)	–	–	–
